The record followed here is patent US20100160356A1, “NOVEL CYCLOBUTYL COMPOUNDS AS KINASE INHIBITORS” (priority 2006, published 2010).

Molecules are shown by their SMILES.

TIE2, sequence (Q02763 23-1124, species assumed): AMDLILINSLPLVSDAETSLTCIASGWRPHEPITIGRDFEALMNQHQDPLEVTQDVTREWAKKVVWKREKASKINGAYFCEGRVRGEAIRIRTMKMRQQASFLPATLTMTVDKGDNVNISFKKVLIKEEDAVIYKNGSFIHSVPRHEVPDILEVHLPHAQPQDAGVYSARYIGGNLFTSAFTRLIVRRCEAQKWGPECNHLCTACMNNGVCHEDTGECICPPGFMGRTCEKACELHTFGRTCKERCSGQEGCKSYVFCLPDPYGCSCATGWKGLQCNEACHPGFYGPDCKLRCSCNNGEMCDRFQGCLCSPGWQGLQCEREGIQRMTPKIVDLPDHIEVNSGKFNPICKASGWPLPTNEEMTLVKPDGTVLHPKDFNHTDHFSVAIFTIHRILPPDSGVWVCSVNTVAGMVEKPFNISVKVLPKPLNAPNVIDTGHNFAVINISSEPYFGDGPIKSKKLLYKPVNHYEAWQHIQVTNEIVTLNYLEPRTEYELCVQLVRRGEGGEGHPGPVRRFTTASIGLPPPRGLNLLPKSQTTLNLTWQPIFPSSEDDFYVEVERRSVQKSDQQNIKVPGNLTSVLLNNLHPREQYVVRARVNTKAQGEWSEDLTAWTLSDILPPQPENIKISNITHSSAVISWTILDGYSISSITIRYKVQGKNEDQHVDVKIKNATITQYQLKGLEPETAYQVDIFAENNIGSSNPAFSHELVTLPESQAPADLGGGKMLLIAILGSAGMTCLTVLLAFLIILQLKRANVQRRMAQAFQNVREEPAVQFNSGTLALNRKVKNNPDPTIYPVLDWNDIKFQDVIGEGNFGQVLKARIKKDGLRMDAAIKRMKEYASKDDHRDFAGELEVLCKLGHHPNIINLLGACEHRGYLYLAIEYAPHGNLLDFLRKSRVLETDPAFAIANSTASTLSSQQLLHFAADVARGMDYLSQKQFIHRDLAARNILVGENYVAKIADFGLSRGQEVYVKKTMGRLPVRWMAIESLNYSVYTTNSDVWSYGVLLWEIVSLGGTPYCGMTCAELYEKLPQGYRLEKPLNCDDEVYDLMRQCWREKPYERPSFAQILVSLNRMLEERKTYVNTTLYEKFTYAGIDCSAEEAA
PDGFRβ, sequence (P09619 33-1106, species assumed): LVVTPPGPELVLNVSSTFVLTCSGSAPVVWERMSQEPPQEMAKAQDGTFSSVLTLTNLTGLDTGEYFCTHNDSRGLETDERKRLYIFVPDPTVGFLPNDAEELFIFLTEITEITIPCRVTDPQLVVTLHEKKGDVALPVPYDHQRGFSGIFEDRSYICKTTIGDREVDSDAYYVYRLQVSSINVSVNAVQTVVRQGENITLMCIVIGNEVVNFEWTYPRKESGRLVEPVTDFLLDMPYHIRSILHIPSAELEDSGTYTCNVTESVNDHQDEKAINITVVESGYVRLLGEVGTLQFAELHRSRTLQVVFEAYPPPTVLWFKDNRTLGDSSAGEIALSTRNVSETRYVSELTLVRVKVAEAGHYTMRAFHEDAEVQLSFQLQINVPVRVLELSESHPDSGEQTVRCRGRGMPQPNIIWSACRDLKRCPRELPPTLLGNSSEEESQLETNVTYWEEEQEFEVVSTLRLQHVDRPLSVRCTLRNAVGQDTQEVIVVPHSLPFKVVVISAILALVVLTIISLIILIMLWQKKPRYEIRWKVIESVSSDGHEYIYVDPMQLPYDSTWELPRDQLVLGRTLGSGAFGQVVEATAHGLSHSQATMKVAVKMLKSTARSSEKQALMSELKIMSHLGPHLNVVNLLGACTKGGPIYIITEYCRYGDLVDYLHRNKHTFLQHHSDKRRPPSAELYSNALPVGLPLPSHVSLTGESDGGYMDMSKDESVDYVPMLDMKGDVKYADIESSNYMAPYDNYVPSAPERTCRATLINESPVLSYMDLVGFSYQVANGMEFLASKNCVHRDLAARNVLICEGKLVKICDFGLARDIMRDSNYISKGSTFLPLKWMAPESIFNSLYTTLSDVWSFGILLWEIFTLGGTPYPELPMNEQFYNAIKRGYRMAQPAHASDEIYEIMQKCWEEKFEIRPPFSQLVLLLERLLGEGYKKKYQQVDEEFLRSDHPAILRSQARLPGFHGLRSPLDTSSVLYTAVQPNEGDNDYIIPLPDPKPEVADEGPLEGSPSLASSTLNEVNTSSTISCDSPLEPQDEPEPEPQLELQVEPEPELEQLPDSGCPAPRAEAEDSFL

For one data set, the target named is TIE2 (Homo sapiens, UniProt Q02763). Nature of the data set: Inhibition of TIE2 (flashplate assay). In kind it is biochemical. The conditions noted are these: flashplate method. As to the method:
B4: inhibition of T1E2 (Flashplate Assay)
(§1) The test plates used are 384-well flashplate microtitre plates from Perkin Elmer (USA). The components of the kinase reaction are pipetted into the assay plate. The TIE2 kinase is incubated for 3 hr. with radioactively labelled ^33P-ATP in the presence and absence of test substances in a total volume of 100 μl at room temperature together with biotinylated poly(Glu, Tyr)4:1. The reaction is terminated using 25 μl of a 200 mM EDTA solution. After incubation for a further 30 min at room temperature, the supernatants are removed by suction, and the wells are washed three times with 100 μl of 0.9% NaCl solution each time. The radioactivity is measured using a Topcount scintillation counter (PerkinElmer, USA). IC50 values are calculated using the RS1 computer program.
One may read the IC50 as the concentration that inhibits the measured activity by half. `NCC1CC(n2cc(I)c3c(N)ncnc32)C1` (stereo not shown) [Compound 52] displayed an IC50 of 2600 nM.

`Nc1ncnc2c1c(-c1ccc3occc3c1)cn2C1CC(CNC(=O)C(F)(F)F)C1` (stereo not shown) [Compound 64] returned a half-inhibitory concentration (IC50) of 2400 nM.

`Cc1csc(-c2cn(C3CC(CN)C3)c3ncnc(N)c23)c1` (stereo not shown) [Compound 70]: the IC50 was 2600 nM.

The next data set addresses PDGFRβ (Homo sapiens, UniProt P09619). In words: Inhibition of PDGFRβ (flashplate assay). Particulars: flashplate method. The class given is biochemical. As for the experimental part:
as §1, with “are 96-well” for “are 384-well”, “The PDGFRβ” for “The TIE2”, “temperature (here autophosphorylation of the kinase).” for “temperature together with biotinylated poly(Glu, Tyr)4:1.”, “using 150” for “using 25”, “a 60” for “a 200”, “with 200” for “with 100”
As for `NCC1CC(n2cc(I)c3c(N)ncnc32)C1` (stereo not shown) [Compound 52], the IC50 amounted to 1100 nM.

For `Nc1ncnc2c1c(-c1ccc3occc3c1)cn2C1CC(CNC(=O)C(F)(F)F)C1` (stereo not shown) [Compound 64], the midpoint of inhibition, the IC50, lay at 2450 nM.

`Cc1csc(-c2cn(C3CC(CN)C3)c3ncnc(N)c23)c1` (stereo not shown) [Compound 70] showed an IC50 of 2500 nM.

System in a further data set: not given
Test: not given
Details: not given
For orientation: melting point means the temperature, or range, at which the solid turns liquid. As to `Nc1ncnc2c1c(-c1ccc3occc3c1)cn2C1CC(CNC(=O)C(F)(F)F)C1` (stereo not shown) [Compound 64], the melting point is 92 to 93.5 °C.

For the next data set, the target named is T1, SGK1 (Homo sapiens, UniProt O00141).
T1 sequence (O00141 1-431): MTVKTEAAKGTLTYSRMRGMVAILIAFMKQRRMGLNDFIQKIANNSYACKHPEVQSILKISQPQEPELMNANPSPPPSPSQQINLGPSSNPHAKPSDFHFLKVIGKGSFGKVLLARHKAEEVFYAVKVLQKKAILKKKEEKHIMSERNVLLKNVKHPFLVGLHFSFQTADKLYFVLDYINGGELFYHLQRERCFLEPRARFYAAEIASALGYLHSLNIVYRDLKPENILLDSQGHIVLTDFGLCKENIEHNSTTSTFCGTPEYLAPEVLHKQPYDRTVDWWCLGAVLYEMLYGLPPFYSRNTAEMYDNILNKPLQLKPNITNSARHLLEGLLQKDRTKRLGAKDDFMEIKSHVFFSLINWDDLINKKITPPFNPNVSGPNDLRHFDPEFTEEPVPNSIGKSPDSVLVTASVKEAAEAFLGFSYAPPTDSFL
Nature of the data set: Inhibition of SGK1 (flashplate assay). In kind it is biochemical. The conditions noted are these: flashplate method. As to the method: as §1, with “SGK1” for “TIE2”
In turn, `NCC1CC(n2cc(-c3ccoc3)c3c(N)ncnc32)C1` (stereo not shown) [Compound 39] came in with an IC50 of 2500 nM.

As to `NCC1CC(n2cc(C#CCO)c3c(N)ncnc32)C1` (stereo not shown) [Compound 47], the concentration for half-maximal inhibition (IC50) is 2550 nM.

In the case of `NCC1CC(n2cc(I)c3c(N)ncnc32)C1` (stereo not shown) [Compound 52], inhibition was half-maximal at 250 nM (IC50).

In turn, `Nc1ncnc2c1c(-c1ccc3occc3c1)cn2C1CC(CNC(=O)C(F)(F)F)C1` (stereo not shown) [Compound 64] had an IC50 of 4400 nM.

`Cc1csc(-c2cn(C3CC(CN)C3)c3ncnc(N)c23)c1` (stereo not shown) [Compound 70] yielded an IC50 of 4450 nM.

A further data set addresses VEGF-2 (Homo sapiens, UniProt P35968). Nature of the data set: Inhibition of VEGF-2 (flashplate assay). The class given is biochemical. The conditions noted are these: flashplate method. As for the experimental part:
as §1, with “VEGF-2” for “TIE2”
In turn, `NCC1CC(n2cc(I)c3c(N)ncnc32)C1` (stereo not shown) [Compound 52] registered an IC50 of 715 nM.

`Nc1ncnc2c1c(-c1ccc3occc3c1)cn2C1CC(CNC(=O)C(F)(F)F)C1` (stereo not shown) [Compound 64] gave an IC50 of 1060 nM.

The target of a further data set is T2, TGFβR1 (Homo sapiens, UniProt P36897).
T2 sequence (P36897 34-503): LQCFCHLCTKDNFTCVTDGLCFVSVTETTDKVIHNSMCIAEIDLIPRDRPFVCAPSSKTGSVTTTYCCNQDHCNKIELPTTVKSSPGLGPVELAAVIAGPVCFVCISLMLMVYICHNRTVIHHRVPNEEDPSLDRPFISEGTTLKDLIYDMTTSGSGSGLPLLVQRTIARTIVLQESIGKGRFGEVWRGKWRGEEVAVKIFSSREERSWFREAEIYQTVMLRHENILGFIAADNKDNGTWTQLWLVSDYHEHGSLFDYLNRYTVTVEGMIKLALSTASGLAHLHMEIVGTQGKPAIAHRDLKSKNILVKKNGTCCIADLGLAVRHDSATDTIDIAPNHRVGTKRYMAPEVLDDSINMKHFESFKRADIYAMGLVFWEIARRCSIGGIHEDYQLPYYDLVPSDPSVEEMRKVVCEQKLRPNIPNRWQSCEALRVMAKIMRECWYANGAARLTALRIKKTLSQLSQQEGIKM
In words: Inhibition of TGFβR1 (flashplate assay). The class given is biochemical. Particulars: flashplate method. As for the experimental part:
The test is carried out as described in Example B1b for IGF1R. A biotinylated is added to the TGFβR1 kinase.
The kinase assay is carried out as a 384-well flashplate assay.
The components of the kinase reaction are pipetted into the assay plate. The TGFβR1 kinase is incubated for 45 min with radioactively labelled ^33P-ATP in the presence and absence of test substances together with biotinylated substrate in a total volume of 35 μl. The reaction is terminated using 25 μl of 200 mM EDTA solution, removed by suction after 30 min at room temperature, and the wells are washed with three times with 100 μl of 0.9% NaCl solution each time. The radioactivity is measured using a Topcount scintillation counter (PerkinElmer, USA). IC50 values are calculated using the RS1 computer program.
Compound `NCC1CC(n2cc(-c3ccoc3)c3c(N)ncnc32)C1` (stereo not shown) [Compound 39] displayed an IC50 of 8500 nM.

With `Nc1ncnc2c1c(-c1ccc3occc3c1)cn2C1CC(CNC(=O)C(F)(F)F)C1` (stereo not shown) [Compound 64], half-maximal inhibition (IC50) was put at 330 nM.

Take `Cc1csc(-c2cn(C3CC(CN)C3)c3ncnc(N)c23)c1` (stereo not shown) [Compound 70]: the midpoint of inhibition, the IC50, lay at 1400 nM.

In the next data set the target is T3, FAK (focal adhesion kinase) (Homo sapiens, UniProt Q05397).
T3 construct: endogenous in cells; host or cells: Calu-6 or HT-29
T3 sequence (Q05397 whole entry): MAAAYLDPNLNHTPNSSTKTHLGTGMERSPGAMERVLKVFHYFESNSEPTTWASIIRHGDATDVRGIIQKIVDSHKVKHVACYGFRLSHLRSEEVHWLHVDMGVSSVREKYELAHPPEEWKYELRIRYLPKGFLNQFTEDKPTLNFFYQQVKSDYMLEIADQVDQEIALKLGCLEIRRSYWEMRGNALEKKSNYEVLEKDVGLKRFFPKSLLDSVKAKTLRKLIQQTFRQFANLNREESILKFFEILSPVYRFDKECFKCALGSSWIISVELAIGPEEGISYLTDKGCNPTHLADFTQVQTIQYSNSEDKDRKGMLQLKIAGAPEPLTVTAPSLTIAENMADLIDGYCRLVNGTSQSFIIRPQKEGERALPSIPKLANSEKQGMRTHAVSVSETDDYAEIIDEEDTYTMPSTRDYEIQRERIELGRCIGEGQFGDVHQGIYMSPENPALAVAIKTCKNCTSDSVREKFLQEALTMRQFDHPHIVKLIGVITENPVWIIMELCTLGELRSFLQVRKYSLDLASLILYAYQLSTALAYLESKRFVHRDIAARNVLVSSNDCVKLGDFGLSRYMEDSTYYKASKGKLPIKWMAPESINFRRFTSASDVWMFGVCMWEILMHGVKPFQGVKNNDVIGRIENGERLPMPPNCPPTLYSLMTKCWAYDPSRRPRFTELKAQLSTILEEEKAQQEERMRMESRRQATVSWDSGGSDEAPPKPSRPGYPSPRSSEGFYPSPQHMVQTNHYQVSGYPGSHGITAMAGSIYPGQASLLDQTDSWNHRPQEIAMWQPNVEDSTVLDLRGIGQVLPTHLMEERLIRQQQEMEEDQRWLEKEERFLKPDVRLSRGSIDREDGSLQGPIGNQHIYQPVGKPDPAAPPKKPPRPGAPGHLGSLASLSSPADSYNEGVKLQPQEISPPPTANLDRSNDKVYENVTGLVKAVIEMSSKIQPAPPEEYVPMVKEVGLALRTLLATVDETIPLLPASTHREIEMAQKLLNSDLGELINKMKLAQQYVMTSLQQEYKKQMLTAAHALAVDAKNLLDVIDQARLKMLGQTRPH
In words: Inhibition of FAK (ELISA assay), FAK phosphorylation in cells. In kind it is cell-based. The conditions noted are these: human cells with FAK amplification. As for the experimental part: Activated FAK promotes the invasive growth of tumour cells and inhibits anoikis.
The amount of phosphorylated FAK is determined by a specific capture ELISA or an analogous LUMINEX assay. FAK from cell lysates is bound to a 96-well ELISA plate or LUMINEX beads by means of a specific antibody (“capturing”), and the tyrosine phosphorylation is detected using a biotin-labelled anti-phosphotyrosine antibody and a streptavidin-peroxidase conjugate by a chemiluminescence method or by means of a fluorescence-labelled anti-phosphotyrosine antibody.
For determination of the activity of kinase inhibitors, cells are pretreated with increasing concentrations of these compounds for 45 min, and the FAK phosphorylation is then determined. As internal control, a concentration series of a reference inhibitor is measured.
For orientation: An ELISA detects its analyte on a solid surface through an enzyme-linked reagent.
Compound `NCC1CC(n2cc(-c3ccoc3)c3c(N)ncnc32)C1` (stereo not shown) [Compound 39] showed an IC50 of 15000 nM.

Compound `Nc1ncnc2c1c(-c1ccc3occc3c1)cn2C1CC(CNC(=O)C(F)(F)F)C1` (stereo not shown) [Compound 64] registered a concentration for half-maximal inhibition (IC50) of 3600 nM.

For `Cc1csc(-c2cn(C3CC(CN)C3)c3ncnc(N)c23)c1` (stereo not shown) [Compound 70], inhibition was half-maximal at 7100 nM (IC50).

The target of a further data set is T4, IGF1 receptor (IGF1R) (Homo sapiens, UniProt P08069).
T4 construct: endogenous in cells; host or cells: MCF-7 or Calu-6
T4 sequence (P08069 31-1367): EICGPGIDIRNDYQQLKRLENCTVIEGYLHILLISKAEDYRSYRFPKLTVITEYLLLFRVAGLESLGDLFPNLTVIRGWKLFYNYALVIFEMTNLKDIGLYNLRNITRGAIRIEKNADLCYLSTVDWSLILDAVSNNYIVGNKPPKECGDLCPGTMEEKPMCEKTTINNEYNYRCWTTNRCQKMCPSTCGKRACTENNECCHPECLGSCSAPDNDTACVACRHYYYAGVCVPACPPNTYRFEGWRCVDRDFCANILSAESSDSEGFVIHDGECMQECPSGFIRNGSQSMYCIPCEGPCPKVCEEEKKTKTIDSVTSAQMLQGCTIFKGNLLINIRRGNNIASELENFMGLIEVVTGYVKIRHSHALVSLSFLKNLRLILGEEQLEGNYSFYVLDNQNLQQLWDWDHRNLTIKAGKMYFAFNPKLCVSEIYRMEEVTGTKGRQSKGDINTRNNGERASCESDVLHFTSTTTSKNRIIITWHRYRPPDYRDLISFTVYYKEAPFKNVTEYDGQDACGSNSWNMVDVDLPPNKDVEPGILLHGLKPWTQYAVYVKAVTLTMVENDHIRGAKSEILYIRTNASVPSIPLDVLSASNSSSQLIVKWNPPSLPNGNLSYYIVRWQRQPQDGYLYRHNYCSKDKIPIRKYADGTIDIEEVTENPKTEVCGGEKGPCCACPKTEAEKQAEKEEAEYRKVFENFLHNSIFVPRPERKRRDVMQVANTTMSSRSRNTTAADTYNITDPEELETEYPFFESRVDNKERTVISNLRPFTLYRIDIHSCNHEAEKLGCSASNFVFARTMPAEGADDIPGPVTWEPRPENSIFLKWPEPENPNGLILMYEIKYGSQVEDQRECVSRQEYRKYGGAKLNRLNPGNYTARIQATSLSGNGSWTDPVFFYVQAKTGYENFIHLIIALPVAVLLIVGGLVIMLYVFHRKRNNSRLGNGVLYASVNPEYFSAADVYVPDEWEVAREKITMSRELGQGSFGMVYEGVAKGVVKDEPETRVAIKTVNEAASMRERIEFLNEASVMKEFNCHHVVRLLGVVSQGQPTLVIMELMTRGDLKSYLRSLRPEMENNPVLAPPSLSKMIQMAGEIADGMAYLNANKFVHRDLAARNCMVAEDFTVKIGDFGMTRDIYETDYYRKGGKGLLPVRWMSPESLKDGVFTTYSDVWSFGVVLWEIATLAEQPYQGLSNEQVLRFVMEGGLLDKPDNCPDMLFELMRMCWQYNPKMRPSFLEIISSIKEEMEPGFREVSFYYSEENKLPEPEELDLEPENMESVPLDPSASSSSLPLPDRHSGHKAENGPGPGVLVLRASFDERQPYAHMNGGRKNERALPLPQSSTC
Nature of the data set: Inhibition of IGF1R (ELISA assay), IGF1-stimulated autophosphorylation in cells. In kind it is cell-based. Particulars: human tumour cells stimulated with IGF1, read-out: IC50 IGF (ELISA). As for the experimental part:
The stimulation induces an autophosphorylation of tyrosine residues in the cytoplasmatic IGF1R domain, which triggers signal transduction cascades, which result in inhibition of apoptosis and proliferation of the cells.
The amount of phosphorylated IGF1R is determined by a receptor-specific capture ELISA or an analogous LUMINEX assay. The IGF1R from cell lysates is bound to a 96-well ELISA plate or LUMINEX beads by means of a specific antibody (“capturing”), and the tyrosine phosphorylation is detected using a biotin-labelled anti-phosphotyrosine antibody and a streptavidin-peroxidase conjugate by a chemiluminescence method or by means of a fluorescence-labelled anti-phosphotyrosine antibody.
For determination of the activity of kinase inhibitors, cells are pretreated with increasing concentrations of these compounds for 45 min and subsequently stimulated using IGF1 for 5 min. As internal control, the biological activity of the ligand IGF1 is checked, and a concentration series of an IGF1R reference inhibitor is measured.
Consider `NCC1CC(n2cc(I)c3c(N)ncnc32)C1` (stereo not shown) [Compound 52], for which the IC50 amounted to 7500 nM.

Take `Cc1csc(-c2cn(C3CC(CN)C3)c3ncnc(N)c23)c1` (stereo not shown) [Compound 70]: the IC50 turned out to be 8500 nM.
